Source: publication PMC12567082, “Silver(I) Complexes Bearing S-Alkyl Thiosalicylic Acid Derivatives: DNA/BSA Binding and Antitumor Activity In Vitro and In Vivo” (Pharmaceutics, 2025)
Each block holds one compound with its values, some of them ahead of it.

Key:
[1] = test system: Mouse breast cancer (4T1); assay: MTT assay 4T1; type: cell-based
Protocol: (§1) Mouse breast cancer (4T1), human breast cancer (MDA-MB-468), mouse colon cancer (CT26), human colon cancer (HCT-116), mouse lung cancer (LLC1), human lung cancer (A549), mouse mesenchymal stem cells (mMSC), and human fibroblast cell lines (MRC-5) were used in this study and were consistently cultured in complete Dulbecco’s Modified Eagle Medium (DMEM) (Sigma-Aldrich, St. Louis, MO, USA) in incubator (5% CO2) under standard conditions. Complete DMEM was Dulbecco’s Modified Eagle Medium supplemented with 10% fetal bovine serum (FBS), 1 mmol/L penicillin–streptomycin, 1 mmol/L mixed nonessential amino acids, and 2 mmol/L L-glutamine (Sigma-Aldrich, St. Louis, MO, USA). All cancer cell lines and MRC-5 cell line were obtained from American Type Culture Collection (ATCC, Manassas, VA, USA), but mMSC was manufactured by Gibco (Middlesex County, MA, USA).
(§2) In 96-well microplates, we seeded cancer and non-cancer cells, more exactly 5 × 10^3 cells per well in 100 μL of complete DMEM (Sigma-Aldrich, St. Louis, MO, USA). […] Tested concentration range for all metal-based substances was 3.9–500 μM. After incubation with MTT solution (5 mg/mL; pH 7.2) for 4 h, optical density was determined using Zenyth 3100 microplate multimode detector (Salzburg, Austria). All experiments were performed three times, each in triplicate, and the IC50 values as well as selectivity indexes (IC50 for mMSC or MRC-5/IC50 for mouse or human cancer cells) were calculated.

[2] = test system: human fibroblast cell lines (MRC-5); assay: MTT assay MRC-5; type: cell-based
Protocol: as §1, §2

[3] = test system: mouse colon cancer (CT26); assay: MTT assay CT26; type: cell-based
Protocol: as §1, §2

CT-DNA [4] = test system: CT-DNA; design: method as in PMID 25350363; conditions: cited from earlier work
CT-DNA [5] = assay: UV-Vis absorption titration with CT-DNA; type: binding, calf; conditions: ΔG = −RT lnKb
Protocol: All DNA-binding studies were conducted in 0.01 M phosphate-buffered saline (PBS, pH 7.40) at 25 °C. […] To eliminate absorbance from CT-DNA, identical amounts of DNA were added to both the test and reference solutions prior to spectral recording.
Intrinsic binding constants (Kb) were calculated using the equation to determine the DNA-binding affinities of the complexes (1):[DNA]/(εa − εf) = [DNA]/(εb − εf) + 1 [Kb(εb − εf)](1)
[DNA] represents the concentration of DNA; apparent extinction coefficient, εa, was calculated as the ratio of the observed absorbance to the concentration of the complex (Aobs/[complex]); and εb and εf correspond to the extinction coefficients of the complex in the fully bound and free forms, respectively. Kb was determined from the ratio of the slope to the intercept obtained from the corresponding linear plots.

CT-DNA [6] = assay: EB–CT-DNA fluorescence quenching; type: binding, calf; conditions: EB–CT-DNA 8.52 × 10^−5 M, PBS pH 7.4
Protocol: All samples were prepared in phosphate-buffered saline (PBS, pH 7.4). Stern–Volmer Equation (2) was used to interpret the fluorescence quenching data.

BSA = target: T1, BSA (Bos taurus, UniProt P02769); assay: BSA tryptophan fluorescence quenching; type: binding, bovine
T1 construct: purchased Sigma-Aldrich
T1 sequence (P02769 25-607): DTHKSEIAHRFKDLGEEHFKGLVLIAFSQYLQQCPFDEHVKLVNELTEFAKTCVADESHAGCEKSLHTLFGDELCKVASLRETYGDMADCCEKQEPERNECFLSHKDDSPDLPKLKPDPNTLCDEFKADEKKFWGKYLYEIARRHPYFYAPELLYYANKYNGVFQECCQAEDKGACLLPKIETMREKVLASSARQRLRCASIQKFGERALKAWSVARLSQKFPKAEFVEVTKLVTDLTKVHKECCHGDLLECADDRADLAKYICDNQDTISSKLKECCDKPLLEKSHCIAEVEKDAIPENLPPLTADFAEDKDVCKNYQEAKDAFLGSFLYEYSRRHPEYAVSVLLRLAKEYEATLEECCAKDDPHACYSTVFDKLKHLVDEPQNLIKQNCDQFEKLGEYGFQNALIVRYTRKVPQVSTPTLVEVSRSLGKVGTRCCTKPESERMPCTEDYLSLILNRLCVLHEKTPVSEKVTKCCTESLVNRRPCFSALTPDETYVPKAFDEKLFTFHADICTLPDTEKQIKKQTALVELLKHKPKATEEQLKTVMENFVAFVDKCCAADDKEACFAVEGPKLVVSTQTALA
Protocol: The protein binding study was carried out using tryptophan fluorescence quenching experiments with BSA. […] Fluorescence emission spectra were recorded between 300 and 500 nm, with excitation at 295 nm.
The quenching constant Ksv was determined based on the Stern–Volmer relationship, as described by Equation (3):I0/I = 1 + kqτ0[Q] = 1 + Ksv[Q](3)
In this equation, I0 and I refer to the fluorescence intensities of BSA measured without and with the quencher (complex), τ0 represents the average fluorescence lifetime of free BSA (∼10^−8 s), and [Q] indicates the quencher concentration.
Parameters such as association binding constant (K) and the number of binding sites per albumin (n) were obtained from Scatchard Equation (4):(ΔI/I0)/[Q] = nK − KΔI/I0(4)
To minimize inner filter, both intensities of fluorescence originating from excitation and emission light absorption and re-absorption were corrected by employing Equation (5); Icor and Iobs are the corrected and observed fluorescence intensities, respectively, and Aex and Aem represent the absorbance of the metal complex at the excitation and emission wavelengths, respectively.Icor = Iobs · […]^(Aex + Aem)/2(5)

[7] = test system: human breast cancer (MDA-MB-468); assay: MTT assay MDA-MB-468; type: cell-based
Protocol: as §1, §2

mouse lung cancer (LLC1) = assay: MTT assay LLC1; type: cell-based
Protocol: as §1, §2

human lung cancer (A549) = assay: MTT assay A549; type: cell-based
Protocol: as §1, §2

[8] = test system: human colon cancer (HCT-116); assay: MTT assay HCT116; type: cell-based
Protocol: as §1, §2

[9] = test system: mouse mesenchymal stem cells (mMSC); assay: MTT assay mMSC; type: cell-based; conditions: 24 h
Protocol: as §1, §2

4T1 mammary tumors = assay: Breast cancer development in vivo (orthotopic 4T1); design: species or system BALB/C female mice; conditions: 6 mg/kg i.p., five single doses every third day, after day 18
Protocol: (§3) Ethics Committee of the Faculty of Medical Sciences of the University of Kragujevac, Serbia, approved all experiments (01-5301/11). ARRIVE guidelines and EU Directive 2010/63/EU for animal experiments were followed. Experimental animals, BALB/C female mice (8–10 weeks old), were housed under standard conditions (temperature-controlled environment, a 12 h light–dark cycle, fed ad libitum, and observed daily) throughout whole duration of experiment. Animals were inoculated with 4T1 cells (3 × 10^4) into the fourth mammary fat pad as previously described. Animals were randomly assigned to experimental or control groups, and after palpable tumors were detected, the pharmacological treatments were started. Female BALB/C mice intraperitoneally received either C3 (3 mg/kg), C3 (6 mg/kg), CDDP (6 mg/kg), or vehicle in distilled water with 0.05% DMSO (Sigma-Aldrich, St. Louis, MO, USA) (untreated group) in five single doses every third day (8 animals per group). Using electronic calipers (Moore and Wright, Sheffield, UK), the sizes of primary 4T1 mammary tumors were morphometrically evaluated. On the 30th day of experiment, animals were sacrificed, blood was collected (for determination of serum levels of ALT, AST, urea, and creatinine), and tissue sections (liver and kidney) were stained with H&E for further analysis. Liver or kidney sections were analyzed by two observers, and the injury levels were determined as previously reported.

BALB/C female mice = assay: In vivo toxicity (serum biochemistry, liver and kidney histology); conditions: 6 mg/kg, H&E, day 30
Protocol: as §3

Compound: CSc1ccccc1C(=O)O [L1, S-methyl derivative of thiosalicylic acid]
IC50 ([1]; 4T1, 48 h): 443 ± 30.5 µM
IC50 ([2]; MRC-5, 48 h): 488 ± 41.6 µM

Compound: CCSc1ccccc1C(=O)O [L2, S-ethyl derivative of thiosalicylic]
IC50 ([1]; 4T1, 48 h): 500 ± 7.6 µM
IC50 ([3]; CT26, 48 h): 465 ± 39.5 µM
IC50 ([2]; MRC-5, 48 h): 384 ± 20.5 µM

Compound: CC[n+]1c(-c2ccccc2)c2cc(N)ccc2c2ccc(N)cc21.[Br-] [ethidium bromide, 3,8-diamino-5-ethyl-6-phenylphenanthridinium bromide]
Kb (CT-DNA [4]): (1.23 ± 0.07) × 10^5 M^−1

Compound: [Ag2(S-Methyl-Thiosal)2] [C1]
ΔG (Gibbs free energy) (CT-DNA [5]): -6.64 kcal/mol
Ksv EB (Stern–Volmer constant) (CT-DNA [6]): (6.0 ± 0.1) × 10^3 M^−1
kq (quenching rate constant) (BSA; BSA 2 µM): (1.7 ± 0.1) × 10^13 M^−1 s^−1
Ksv (Stern–Volmer constant) (BSA; BSA 2 µM, λex 295 nm): (1.7 ± 0.1) × 10^5 M^−1
K (binding constant) (BSA; Scatchard equation): (1.7 ± 0.1) × 10^5 M^−1
n (number of binding sites) (BSA; Scatchard equation): 0.8
IC50 ([1]; 4T1, 48 h): 4 ± 0.95 µM
IC50 ([7]; MDA-MB-468, 24 h): 4.19 ± 0.98 µM
Selectivity Index (IC50 mMSC or MRC-5/ IC50 Cancer Cell) ([7]; MDA-MB-468, 24 h): 11.05
IC50 ([7]; MDA-MB-468, 48 h): 4.37 ± 0.41 µM
Selectivity Index (IC50 mMSC or MRC-5/ IC50 Cancer Cell) ([7]; MDA-MB-468, 48 h): 12.18
IC50 (mouse lung cancer (LLC1); LLC1, 24 h): 39.8 ± 1.07 µM
IC50 (mouse lung cancer (LLC1); LLC1, 48 h): 32 ± 1.47 µM
IC50 (human lung cancer (A549); A549, 24 h): 58.3 ± 1.91 µM
Selectivity Index (IC50 mMSC or MRC-5/ IC50 Cancer Cell) (human lung cancer (A549); A549, 24 h): 0.79
IC50 (human lung cancer (A549); A549, 48 h): 48.6 ± 1.06 µM
Selectivity Index (IC50 mMSC or MRC-5/ IC50 Cancer Cell) (human lung cancer (A549); A549, 48 h): 1.10
IC50 ([2]; MRC-5, 24 h): 46.3 ± 1.52 µM
IC50 ([2]; MRC-5, 48 h): 53.2 ± 1.27 µM

Compound: CCCSc1ccccc1C(=O)O [L3, S-propyl derivative of thiosalicylic acid]
IC50 ([1]; 4T1, 48 h): 500 ± 30.5 µM
IC50 (human lung cancer (A549); A549, 48 h): 500 ± 47.3 µM

Compound: CCCCSc1ccccc1C(=O)O [L4, S-butyl derivative of thiosalicylic]
IC50 ([1]; 4T1, 24 h): 407 ± 35.1 µM
IC50 ([1]; 4T1, 48 h): 417 ± 61.4 µM
IC50 ([7]; MDA-MB-468, 48 h): 408 ± 12.7 µM
IC50 ([3]; CT26, 48 h): 368 ± 58.3 µM
IC50 (human lung cancer (A549); A549, 24 h): 494.9 ± 3.58 µM
IC50 (human lung cancer (A549); A549, 48 h): 490 ± 22 µM

IC50 ([1]; 4T1, 24 h): 12 ± 1.98 µM
IC50 ([1]; 4T1, 48 h): 5.17 ± 0.98 µM
IC50 ([7]; MDA-MB-468, 24 h): 4.06 ± 0.97 µM
IC50 ([3]; CT26, 24 h): 16.9 ± 1.42 µM
IC50 ([8]; HCT 116, 24 h): 63.3 ± 3.21 µM
IC50 ([8]; HCT 116, 48 h): 15.8 ± 1.28 µM
IC50 (mouse lung cancer (LLC1); LLC1, 24 h): 21.8 ± 1.11 µM
IC50 (human lung cancer (A549); A549, 24 h): 23.2 ± 1.77 µM
IC50 (human lung cancer (A549); A549, 48 h): 14 ± 1.44 µM
Compound: [NH2][Pt]([NH2])([Cl])[Cl] [CDDP, cisplatin, reference compound]
Selectivity Index (IC50 mMSC or MRC-5/ IC50 Cancer Cell) ([1]; 4T1, 24 h): 1.43
Selectivity Index (IC50 mMSC or MRC-5/ IC50 Cancer Cell) ([7]; MDA-MB-468, 24 h): 9.98
Selectivity Index (IC50 mMSC or MRC-5/ IC50 Cancer Cell) ([3]; CT26, 24 h): 1.01
Selectivity Index (IC50 mMSC or MRC-5/ IC50 Cancer Cell) ([8]; HCT-116, 24 h): 0.64
Selectivity Index (IC50 mMSC or MRC-5/ IC50 Cancer Cell) ([8]; HCT-116, 48 h): 1.73
Selectivity Index (IC50 mMSC or MRC-5/ IC50 Cancer Cell) (mouse lung cancer (LLC1); LLC1, 24 h): 0.79
Selectivity Index (IC50 mMSC or MRC-5/ IC50 Cancer Cell) (human lung cancer (A549); A549, 24 h): 1.74
Selectivity Index (IC50 mMSC or MRC-5/ IC50 Cancer Cell) (human lung cancer (A549); A549, 48 h): 1.95
IC50 [9]: 17.1 ± 1.15 µM
IC50 ([2]; MRC-5, 24 h): 40.5 ± 0.57 µM
IC50 ([2]; MRC-5, 48 h): 27.4 ± 0.72 µM
tumor growth compared to the untreated group (4T1 mammary tumors): significantly slower
liver changes (histopathology) (BALB/C female mice): piecemeal necrosis, focal lytic necrosis, and portal inflammation
